Data set [1] addresses T1, terbium chelate-labeled menin / FITC-MBM1 peptide (Menin/MLL) (Homo sapiens, UniProt O00255, T541A).
T1 construct: Menin (a. a. l-610-6×his tag) was labeled with terbium cryptate as follows
T1 sequence (O00255 with tags, fused parts or gaps T541A): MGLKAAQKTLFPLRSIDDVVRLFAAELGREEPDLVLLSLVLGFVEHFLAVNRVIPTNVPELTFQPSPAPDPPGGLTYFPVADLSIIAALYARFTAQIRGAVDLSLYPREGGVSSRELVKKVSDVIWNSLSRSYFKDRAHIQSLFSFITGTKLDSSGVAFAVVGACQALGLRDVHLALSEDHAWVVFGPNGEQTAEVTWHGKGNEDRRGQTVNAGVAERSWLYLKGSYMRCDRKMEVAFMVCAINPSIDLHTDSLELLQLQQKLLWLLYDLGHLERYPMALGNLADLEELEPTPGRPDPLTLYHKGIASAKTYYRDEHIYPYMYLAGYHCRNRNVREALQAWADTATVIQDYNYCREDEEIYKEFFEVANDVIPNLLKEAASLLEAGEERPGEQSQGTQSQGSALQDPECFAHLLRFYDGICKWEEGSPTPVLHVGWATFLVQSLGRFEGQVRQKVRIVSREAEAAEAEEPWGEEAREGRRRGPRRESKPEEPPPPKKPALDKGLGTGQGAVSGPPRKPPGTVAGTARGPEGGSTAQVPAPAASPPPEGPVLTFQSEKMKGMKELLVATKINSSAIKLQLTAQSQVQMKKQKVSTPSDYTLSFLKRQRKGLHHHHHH
Briefly: Menin/MLL homogenous time-resolved fluorescence (HTRF) assay. The data set is classed as binding. Particulars: read-out: (2) Menin HTRF assay (IC50 (nM)). The method, then:
2) Menin/MLL Homogenous Time-Resolved Fluorescence (HTRF) Assay
To an untreated, white 384-well microtiter plate was added 40 nL 200× test compound in DMSO and 4 μL 2× terbium chelate-labeled menin (vide infra for preparation) in assay buffer (40 mM Tris .HCl, pH 7.5, 50 mM NaCl, 1 mM DTT and 0.05% Pluronic F-127). After incubation of test compound and terbium chelate-labeled menin for 5 min at ambient temperature, 4 μL 2×FITC-MBM1 peptide (FITC-P-alanine-SARWRFPARPGT-NH2) in assay buffer was added, the microtiter plate centrifuged at 1000 rpm for 1 min and the assay mixtures incubated for 15 min at ambient temperature. The relative amount of menin ⋅FITC-MBM1 complex present in an assay mixture is determined by measuring the homogenous time-resolved fluorescence (HTRF) of the terbium/FITC donor/acceptor fluorphore pair using a BMG Pherastar plate reader (ex. 337 nm/terbium cm. 490 nm/FITC cm. 520 nm) at ambient temperature. The degree of fluorescence resonance energy transfer (the HTRF value) is expressed as the ratio of the fluorescence emission intensities of the FITC and terbium fluorophores (P^m 520 nm//F^em 490 nm). The final concentrations of reagents in the binding assay are 100 pM terbium chelate-labeled menin, 75 nM FITC-MBM1 peptide and 0.5%) DMSO in assay buffer. Dose-response titrations of test compounds are conducted using an 11 point, three-fold serial dilution scheme, starting typically at 25 μM.
Compound potencies were determined by first calculating % inhibition at each compound concentration according to equation 1: % inhibition=((HC−LC)−(HTRF^compound−LC))/(HC−LC))*100 (Eqn 1)
Where LC and HC are the HTRF values of the assay in the presence or absence of a saturating concentration of a compound that competes with FITC-MBM1 for binding to menin, and HTRF^compound is the measured HTRF value in the presence of the test compound. HC and LC HTRF values represent an average of at least 16 replicates per plate.
Where Bottom and Top are the lower and upper asymptotes of the dose-response curve, respectively, IC50 is the concentration of compound that yields 50% inhibition of signal and h is the Hill coefficient.
Preparation of Terbium cryptate labeling of Menin: Menin (a. a. l-610-6×his tag) was labeled with terbium cryptate as follows. 2 mg of Menin was buffer exchanged into 1× phosphate buffered saline. 16 uM Menin was incubated with 4-fold molar excess NHS-terbium cryptate (Cisbio Bioassays, Bedford, Mass.) for 2 hours at room temperature. The labeled protein was purified away from free label by running the reaction over a Superdex 200 Increase 10/300 GL column at 0.75 ml/min. Peak fractions were collected, aliquoted and frozen at −80° C.
(In general: Time-resolved FRET reads energy transfer from a long-lived donor to a nearby acceptor.)

In data set [2] the test system is MV-4-1 1 cells (MLL-AF4). Briefly: Proliferation assay (spheroid-like growth, 8 d, live-cell imaging), MV-4-11. The data set is classed as cell-based, human. Particulars: Homo sapiens, MV4-11, 192 h, MV-4-11 cells, absolute IC50 from AUC of confluence, read-out: (3) Spheroid assay MV-4-11 (IC50 (μM)). The protocol:
The anti-proliferative effect of menin/MLL protein/protein interaction inhibitor test compounds was assessed in human leukemia cell lines. The cell lines MV-4-1 1 and MOLM14 harbor MEL translocations and express the MEL fusion proteins MLL-AF4 and MLL-AF9, respectively, as well as the wildtype protein from the second allele. […] K562 was used as a control cell line containing two MLL wildtype alleles in order to exclude compounds that display general cytotoxic effects.
MV-4-1 1 and MOLM14 were cultured in RPMI-1640 (Sigma Aldrich) supplemented with 10% fetal bovine serum (HyClone), 2 mM L-glutamine (Sigma Aldrich) and 50 μg/ml gentamycin (Gibco). K562 were propagated in RPMI-1640 (Sigma Aldrich) supplemented with 20% fetal bovine serum (HyClone), 2 mM L-glutamine (Sigma Aldrich) and 50 μg/ml gentamycin (Gibco).
In order to assess the anti-proliferative effects, 1,500 MV-4-1 1, 300 MOLM14 or 750 K562 cells were seeded in 200 μl media per well in 96-well round bottom, ultra-low attachment plates (Costar, catalogue number 7007). Cell seeding numbers were chosen based on growth curves to ensure linear growth throughout the experiment. Test compounds were added at different concentrations and the DMSO content was normalized to 0.3%>. Cells were incubated for 8d at 37° C. and 5% C02. Spheroid like growth was monitored in real-time by live-cell imaging (IncuCyteZOOM, Essenbio, 4× objective) acquiring one image every four hours for 8d. Confluence (%) as a measure of spheroid size was determined using an integrated analysis tool.
In order to determine the cumulative effect of the test compounds over time, the area under the curve (AUC) in a plot of confluence against time was calculated. Confluence at the beginning of the experiment (t=0) was used as baseline for the AUC calculation.
Absolute IC50 values were calculated according to the following procedure: % Control=(AUC sample/AUC control)*100 AUC control=mean AUC of control values(cells without compound/DMSO as vehicle control)
A non-linear curve fit was applied using the least squares (ordinary) fit method to the plot of % control versus compound concentration. Based on this, the absolute IC50 value (half maximal inhibitory concentration of the test compound causing an anti-proliferative effect of 50% relative to the vehicle control) was calculated.

Several values for one entry are separate records, joined by “and”; a condition that tells them apart may be missing. Equal values may be shown once. Where a name gives a salt, the structure may show the parent alone.

Results on 26 compounds are retold here after patent US11530226B2, “Azepane inhibitors of menin-MLL interaction” (Janssen Pharmaceutica NV, priority 2016, dated 2022).

The term melting point denotes the temperature, or range, at which the solid turns liquid. In the case of `FC(F)(F)Cc1cc2c(N3CCC[C@@H](NCc4ccccc4)CC3)ncnc2s1` (as salt: HCl) [Compound 3, (R)N-benzyl-1-(6-(2,2,2-trifluoroethyl)thieno[2,3-d]pyrimidin-4-yl)azepan-4-amine], the melting point worked out at 130 °C.

In turn, `FC(F)(F)Cc1cc2c(N3CCC[C@H](NCc4ccccc4)CC3)ncnc2s1` (as salt: HCl) [Compound 4, (S)-N-benzyl-1-(6-(2,2,2-trifluoroethyl)thieno[2,3-d]pyrimidin-4-yl)azepan-4-amine] gave a melting point of 230 °C.

Compound `Cc1ccc(CNC2CCCN(c3ncnc4sc(CC(F)(F)F)cc34)CC2)cc1` (stereo not drawn) (as salt: HCl) [Compound 16] came in with a melting point of 262 to 264 °C.

In turn, `FC(F)CN[C@@H]1CCCN(c2ncnc3sc(CC(F)(F)F)cc23)CC1` (as salt: hydrochloride) [Compound 5] gave a melting point of 244 °C.

The compound `O=C(NC1CCCN(c2ncnc3sc(CC(F)(F)F)cc23)CC1)C1CC2(CC2)CN1` (stereo not drawn) (as salt: hydrochloride) [Compound 10B] came in with a melting point of 205 °C.

The compound `FC(F)(F)Cc1cc2c(N3CCCC(NCC4CCOCC4)CC3)ncnc2s1` (stereo not drawn) (as salt: hydrochloride) [Compound 55] yielded a melting point of 110 °C.

For `CN(C)CCCCN(Cc1cnn(C)c1)C1CCCN(c2ncnc3sc(CC(F)(F)F)cc23)CC1` (stereo not drawn) (as salt: hydrochloride) [Compound 61], the melting point came to 110 °C.

`CN(C)CCCNC1CCCN(c2ncnc3sc(CC(F)(F)F)cc23)CC1` (stereo not drawn) (as salt: hydrochloride) [Compound 62]: the melting point worked out at 130 °C.

Turning to `C[C@@H](N[C@@H]1CCCN(c2ncnc3sc(CC(F)(F)F)cc23)CC1)c1cnn(C)c1` (single isomer, unassigned) (as salt: HCl) [Compound 54A], the melting point was found to be 160 °C.

As to `C[C@H](N[C@@H]1CCCN(c2ncnc3sc(CC(F)(F)F)cc23)CC1)c1cnn(C)c1` (single isomer, unassigned) (as salt: HCl) [Compound 54B], the melting point was 160 °C.

`C[C@@H](N[C@H]1CCCN(c2ncnc3sc(CC(F)(F)F)cc23)CC1)c1cnn(C)c1` (single isomer, unassigned) (as salt: HCl) [Compound 54D]: the melting point turned out to be 160 °C.

With `Fc1ccc(CN[C@@H]2CCCN(c3ncnc4sc(CC(F)(F)F)cc34)CC2)c(F)c1` (single isomer, unassigned) (as salt: hydrochloride) [Compound 7A], the melting point was found to be 176 °C.

For `Fc1ccc(CN[C@H]2CCCN(c3ncnc4sc(CC(F)(F)F)cc34)CC2)c(F)c1` (single isomer, unassigned) (as salt: hydrochloride) [Compound 7B], the melting point was 180 °C.

The compound `Cc1ccc(CN[C@@H]2CCCN(c3ncnc4sc(CC(F)(F)F)cc34)CC2)c(C)c1` (single isomer, unassigned) (as salt: hydrochloride) [Compound 9A] registered a melting point of 156 °C.

Take `Cc1ccc(CN[C@H]2CCCN(c3ncnc4sc(CC(F)(F)F)cc34)CC2)c(C)c1` (single isomer, unassigned) (as salt: hydrochloride) [Compound 9B]: the melting point was 160 °C.

`CC(C)[C@H](N[C@H]1CCCN(c2ncnc3sc(CC(F)(F)F)cc23)CC1)C1CNC1` (single isomer, unassigned) (as salt: hydrochloride) [Compound 32] showed a melting point of 190 °C.

Take `CC(C)[C@H](NC1CCCN(c2ncnc3sc(CC(F)(F)F)cc23)CC1)C1CNC1` (single isomer, unassigned) (as salt: hydrochloride) [Compound 33]: the melting point amounted to 200 °C.

`CC(C)[C@@H](NC1CCCN(c2ncnc3sc(CC(F)(F)F)cc23)CC1)C1CNC1` (single isomer, unassigned) (as salt: hydrochloride) [Compound 34] yielded a melting point of 188 °C.

Compound `CC(C)[C@@H](N[C@@H]1CCCN(c2ncnc3sc(CC(F)(F)F)cc23)CC1)C1CNC1` (single isomer, unassigned) (as salt: hydrochloride) [Compound 35] came in with a melting point of 193 °C.

Consider `CC(C)[C@@H](N[C@H]1CCCN(c2ncnc3sc(CC(F)(F)F)cc23)CC1)C1CNC1` (single isomer, unassigned) (as salt: hydrochloride) [Compound 36], for which the melting point turned out to be 208 °C.

Turning to `CN(C)CCN(Cc1ccccc1)[C@@H]1CCCN(c2ncnc3sc(CC(F)(F)F)cc23)CC1` (single isomer, unassigned) (as salt: hydrochloride) [Compound 57A], the melting point amounted to 150 °C.

With `C[C@H]1CCN(c2ncnc3sc(CC(F)(F)F)cc23)CC[C@H]1NCc1ccccc1` (single isomer, unassigned) (as salt: hydrochloride) [Compound 68A], the melting point is 134 °C and 136 °C.

On to `C[C@@H]1CCN(c2ncnc3sc(CC(F)(F)F)cc23)CC[C@@H]1NCc1ccccc1` (single isomer, unassigned) (as salt: hydrochloride) [Compound 68B], for which the melting point came to 150 °C.

As a reminder, the IC50 is the point on the concentration scale where inhibition reaches its midpoint. Turning to `FC(F)(F)Cc1cc2c(N3CCCC(N4Cc5ccccc5C4)CC3)ncnc2s1` (stereo not drawn) [Compound 6], the melting point is 111 °C and 111.41 °C. In addition, the IC50 in data set [1] came out at 60 nM. For the same compound, in data set [2], the IC50 stood at 2.2 µM.

`CC(C)NC1CCCN(c2ncnc3sc(CC(F)(F)F)cc23)CC1` (stereo not drawn) [Compound 12] returned a melting point of 94 °C. Moreover, the IC50 in data set [1] is 5790 nM.

Compound `FC(F)(F)Cc1cc2c(N3CCCC(Oc4ccccc4)CC3)ncnc2s1` (stereo not drawn) [Compound 15] had a melting point of 110 °C. For the same compound, in data set [1], the IC50 was 606 nM.
